This is an account of results in ChEMBL document CHEMBL1136858, “Synthesis of hydroxycoumarins and hydroxybenzo[f]- or [h]coumarins as lipid peroxidation inhibitors” (Bioorg Med Chem Lett, 2009).

Calls of active or inactive are those of the source. No cut-off for these calls is given here.

Assay [1] relates to Radical scavenging activity. The assay is described as follows: Antioxidant activity assessed as DPPH radical scavenging activity at 0.01 mM after 60 mins. The assay is classed as functional. On the technique in general: Loss of DPPH colour is used to gauge radical scavenging.
Assay [2] can be described thus: Antioxidant activity assessed as superoxide radical scavenging activity at 100 uM by nitroblue tetrazolium method. The assay is classed as functional.
In assay [3] the test system is Radical scavenging activity. Description: Antioxidant activity assessed as DPPH radical scavenging activity at 0.05 mM after 60 mins. The assay is classed as functional.
Assay [4] relates to Radical scavenging activity. The assay is described as follows: Antioxidant activity assessed as DPPH radical scavenging activity at 0.05 mM after 20 mins. The assay is classed as functional.
Assay [5] in a line: Antioxidant activity assessed as inhibition of AAPH-induced lipid peroxidation at 100 uM. The assay is classed as functional.
For assay [6], the system named is Radical scavenging activity. Description: Antioxidant activity assessed as DPPH radical scavenging activity at 0.01 mM after 20 mins. The assay is classed as functional.
Assay [7] deals with Glycine max. The assay is described as follows: Inhibition of soybean lipoxygenase at 100 uM by UV absorbance based assay.
Assay [8] deals with Rattus norvegicus. Description: Antiinflammatory activity in rat assessed as inhibition of carrageenan-induced paw edema at 0.01 mmol/kg, ip after 3.5 hrs. The assay is classed as functional. For orientation: In the carrageenan paw model, swelling and tenderness develop within hours.
Assay [9] is described as follows: Inhibition of soybean lipoxygenase by UV absorbance based assay. More on the design: species or system Glycine max.

With `Cc1cc(O)cc2oc(=O)ccc12`, the Activity came out at 54% in assay [1], 43% in assay [3], 43% in assay [4] and 31% in assay [6]. Moreover, the inhibition – broadly, the share of the control response that was lost under treatment – is 61% in assay [2], 30% in assay [5] and 27% in [7].
Take `Cc1ccc2ccc(=O)oc2c1`: the Activity in assay [1] and in assay [6] was 2% in each case. Also, the outcome in assay [3] and in assay [4] was inactive. For the same compound, in assay [8], the inhibition in vivo (in general, the change of the read-out against control, counted positive when it falls) at 10 µmol/kg was 55%. The compound also yielded an inhibition in assay [7] of 89%.
With `COc1ccc2c(c1)c(CC(=O)O)c(C)n2C(=O)c1ccc(Cl)cc1` [INDOMETHACIN], in [8], the inhibition in vivo at 10 µmol/kg came to 47%.
As to `CC(Cc1ccc(O)c(O)c1)C(C)Cc1ccc(O)c(O)c1` (stereo not drawn), the Activity in assay [1] was 83%; in assay [3], 72%; in assay [4] it was 68%; in assay [6] it was 81%.
On to `Cc1c(C)c2c(c(C)c1O)CCC(C)(C(=O)O)O2` (stereo not drawn), for which the inhibition in assay [5] was determined as 73%.
Take `O=C(O)/C=C/c1ccc(O)c(O)c1` [CAFFEIC ACID]: the inhibition in assay [2] is 71%. Also, the IC50 (usually the concentration that gives 50% inhibition) in assay [9] worked out at 600 µM.
In the case of `O=c1ccc2ccccc2o1` [COUMARIN], the results for the Activity in [1] and in assay [6] were 21% and 5%, respectively. For the same compound, the outcome in assay [3] and in assay [4] was inactive. The inhibition in vivo at 10 µmol/kg in assay [8] was found to be 30%. This compound also gave an inhibition in assay [7] of 15%.
On to `Cc1cc2oc(=O)ccc2cc1O`, for which the Activity came to 51% in assay [1], 20% in [3], 22% in [4] and 51% in assay [6]. Moreover, the inhibition in [2] worked out at 54%; in assay [5] it was 24%; in assay [7], 3%.
Consider `O=c1ccc2c(cc(O)c3ccccc32)o1`, for which the Activity was 51% in assay [1], 31% in [3], 28% in [4] and 55% in assay [6]. Besides, the inhibition result in [2] is “inactive”. For the same compound, the values for the inhibition in [5] and in assay [7] were 57% and 38%, respectively. Further, in assay [8], the inhibition in vivo at 10 µmol/kg is 15%.
In the case of `O=c1ccc2cccc(O)c2o1` [8-Hydroxycoumarin], the Activity in [1] was 32%; in [3] it was 30%; in [4], 31%; in assay [6] it was 33%. In addition, the inhibition in assay [2] worked out at 56%; in assay [5], 28%; in assay [7], 37%. The inhibition in vivo at 10 µmol/kg in assay [8] was found to be 18%.
For `O=c1ccc2ccc(O)cc2o1` [UMBELLIFERONE], the Activity in assay [1] and in assay [6] was 2% throughout. For the same compound, the inhibition came out at 65% in [2] and 83% in assay [5]. Further, the outcome in assay [3], in assay [4] and in [8] was inactive. The half-inhibitory concentration (IC50) in [9] was found to be 43 µM.
With `Cc1c(O)ccc2ccc(=O)oc12`, the Activity in assay [1] is 27%; in assay [3] it was 15%; in assay [4], 14%; in assay [6] it was 26%. The values for the inhibition in [2] and in assay [7] were 60% and 25%, respectively. Moreover, the inhibition entry in assay [5] is “inactive”.
`O=c1ccc2cc(O)c3ccccc3c2o1`: the Activity in assay [1] stood at 89%; in [3] it was 72%; in [4], 65%; in assay [6], 77%. Moreover, the inhibition in assay [2] came to 61%; in [5], 100%. In addition, the inhibition in vivo at 10 µmol/kg in assay [8] was determined as 39%. This compound yielded an IC50 in [9] of 100 µM.
Consider `O=c1ccc2c(o1)c(O)cc1ccccc12`, for which the Activity in assay [1] amounted to 54%; in [3] it was 20%; in assay [4] it was 22%; in assay [6], 46%. In addition, the inhibition was found to be 79% in assay [2] and 100% in assay [5]. Further, in [8], the inhibition in vivo at 10 µmol/kg stood at 18%. Besides, the inhibition entry in assay [7] was “inactive”.
For `O=c1ccc2cc(O)c3c(c2o1)CCCC3`, the Activity turned out to be 40% in [1], 38% in assay [3], 35% in assay [4] and 44% in [6]. The inhibition in assay [2] is 68%; in [5] it was 42%; in [7] it was 12%.
